Experimental data taken from ChEMBL document CHEMBL1132937, “Protease inhibitors: synthesis of potent bacterial collagenase and matrix metalloproteinase inhibitors incorporating N-4-nitrobenzylsulfonylglycine hydroxamate moieties” (J Med Chem, 2000).

Columns and labels:
[1] = biological target: Matrix metalloproteinase-9 (Homo sapiens, UniProt P14780)
Description: Inhibitory activity against the Matrix metalloprotease-9

Interstitial collagenase = biological target: T1, Interstitial collagenase (Homo sapiens, UniProt P03956)
T1 sequence (P03956 whole entry): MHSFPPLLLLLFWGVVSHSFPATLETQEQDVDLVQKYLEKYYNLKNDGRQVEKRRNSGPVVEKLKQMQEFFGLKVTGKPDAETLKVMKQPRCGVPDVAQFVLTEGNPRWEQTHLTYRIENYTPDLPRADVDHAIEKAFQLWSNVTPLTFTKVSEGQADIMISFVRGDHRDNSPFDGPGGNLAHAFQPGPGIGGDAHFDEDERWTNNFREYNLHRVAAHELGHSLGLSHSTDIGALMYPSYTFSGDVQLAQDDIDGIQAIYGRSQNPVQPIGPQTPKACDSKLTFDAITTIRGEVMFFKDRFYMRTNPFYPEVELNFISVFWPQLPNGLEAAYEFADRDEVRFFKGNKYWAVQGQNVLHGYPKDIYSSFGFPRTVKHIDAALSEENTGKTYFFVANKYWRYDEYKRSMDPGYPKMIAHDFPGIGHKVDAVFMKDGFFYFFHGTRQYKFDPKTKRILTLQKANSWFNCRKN
Description: Inhibitory activity against the Matrix Metalloprotease 1 (MMP-1)

Neutrophil collagenase = Neutrophil collagenase (Homo sapiens, UniProt P22894)
Description: Inhibitory activity against the Matrix Metalloprotease-8

[2] = biological target: 72 kDa type IV collagenase (Homo sapiens, UniProt P08253)
Sequence of 72 kDa type IV collagenase (P08253 whole entry): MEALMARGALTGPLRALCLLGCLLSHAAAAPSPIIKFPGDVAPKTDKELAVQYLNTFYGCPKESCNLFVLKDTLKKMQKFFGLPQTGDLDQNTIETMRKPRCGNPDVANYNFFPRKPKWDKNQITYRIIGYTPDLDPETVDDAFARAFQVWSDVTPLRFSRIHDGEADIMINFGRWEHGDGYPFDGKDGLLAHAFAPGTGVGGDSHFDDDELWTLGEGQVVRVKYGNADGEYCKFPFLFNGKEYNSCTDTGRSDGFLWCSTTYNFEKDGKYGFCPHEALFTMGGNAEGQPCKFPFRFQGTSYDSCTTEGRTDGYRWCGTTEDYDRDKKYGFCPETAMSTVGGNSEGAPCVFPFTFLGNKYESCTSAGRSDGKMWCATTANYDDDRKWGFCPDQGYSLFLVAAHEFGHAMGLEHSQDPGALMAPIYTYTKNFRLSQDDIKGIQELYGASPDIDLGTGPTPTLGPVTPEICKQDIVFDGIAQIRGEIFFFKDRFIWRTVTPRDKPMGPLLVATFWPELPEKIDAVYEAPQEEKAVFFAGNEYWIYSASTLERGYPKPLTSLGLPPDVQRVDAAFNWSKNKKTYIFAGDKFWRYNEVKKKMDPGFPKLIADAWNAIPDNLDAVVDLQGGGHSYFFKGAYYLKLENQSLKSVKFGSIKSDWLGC
Description: Inhibitory activity against the Matrix Metalloprotease 2 (MMP-2)

Sequence of Neutrophil collagenase (P22894 whole entry): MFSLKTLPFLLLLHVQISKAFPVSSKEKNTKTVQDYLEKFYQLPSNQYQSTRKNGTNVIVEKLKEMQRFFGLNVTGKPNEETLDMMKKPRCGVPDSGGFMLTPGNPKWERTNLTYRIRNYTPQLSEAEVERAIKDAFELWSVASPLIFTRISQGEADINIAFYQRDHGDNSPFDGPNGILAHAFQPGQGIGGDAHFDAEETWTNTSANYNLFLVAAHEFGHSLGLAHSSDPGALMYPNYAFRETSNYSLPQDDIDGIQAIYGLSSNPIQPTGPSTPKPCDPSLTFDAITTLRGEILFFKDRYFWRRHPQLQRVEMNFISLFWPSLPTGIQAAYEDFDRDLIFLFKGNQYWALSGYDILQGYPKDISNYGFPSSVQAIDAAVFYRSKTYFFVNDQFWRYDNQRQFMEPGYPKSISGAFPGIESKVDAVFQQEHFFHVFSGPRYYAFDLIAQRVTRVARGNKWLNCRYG
Sequence of Matrix metalloproteinase-9 (P14780 whole entry): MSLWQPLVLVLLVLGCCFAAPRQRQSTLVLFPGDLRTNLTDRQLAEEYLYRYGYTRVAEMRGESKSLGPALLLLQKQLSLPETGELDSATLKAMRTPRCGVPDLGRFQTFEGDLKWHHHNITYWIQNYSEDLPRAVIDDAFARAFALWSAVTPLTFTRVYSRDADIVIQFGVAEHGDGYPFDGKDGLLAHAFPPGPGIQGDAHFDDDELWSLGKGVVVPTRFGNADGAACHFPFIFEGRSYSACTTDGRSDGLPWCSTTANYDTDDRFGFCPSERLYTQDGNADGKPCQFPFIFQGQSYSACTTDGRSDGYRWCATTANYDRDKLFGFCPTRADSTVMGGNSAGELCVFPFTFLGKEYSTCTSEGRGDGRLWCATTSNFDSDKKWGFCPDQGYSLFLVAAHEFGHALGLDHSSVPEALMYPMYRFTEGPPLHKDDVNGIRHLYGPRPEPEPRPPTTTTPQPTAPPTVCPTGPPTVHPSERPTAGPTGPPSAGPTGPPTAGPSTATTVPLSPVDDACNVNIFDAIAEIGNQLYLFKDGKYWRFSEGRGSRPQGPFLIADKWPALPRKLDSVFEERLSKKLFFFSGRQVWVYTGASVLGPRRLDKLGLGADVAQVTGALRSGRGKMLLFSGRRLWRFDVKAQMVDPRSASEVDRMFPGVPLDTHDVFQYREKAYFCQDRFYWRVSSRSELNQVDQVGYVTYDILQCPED

Structure (SMILES)	Ki [1]	Ki (Interstitial collagenase)	Ki (Neutrophil collagenase)	Ki [2]
CC(C)(C)OC(=O)Nc1cccc(S(=O)(=O)N(CC(=O)NO)Cc2ccc([N+](=O)[O-])cc2)c1	14 nM	26 nM	15 nM	11 nM
O=C(CN(Cc1ccc([N+](=O)[O-])cc1)Sc1ccc([N+](=O)[O-])cc1)NO	11 nM	18 nM	8 nM	10 nM
CN(C)c1cccc2c(S(=O)(=O)N(CC(=O)NO)Cc3ccc([N+](=O)[O-])cc3)cccc12	53 nM	83 nM	58 nM	41 nM
CC(C)(C)OC(=O)Nc1ccc(S(=O)(=O)N(CC(=O)NO)Cc2ccc([N+](=O)[O-])cc2)cc1	10 nM	17 nM	11 nM	10 nM
O=C(CN(Cc1ccc([N+](=O)[O-])cc1)S(=O)(=O)c1ccc(NC(=O)NS(=O)(=O)c2ccc(F)cc2)cc1)NO	1.2 nM	54 nM	0.5 nM	0.6 nM
CS(=O)(=O)N(CC(=O)NO)Cc1ccc([N+](=O)[O-])cc1	30 nM	75 nM	24 nM	19 nM
O=C(CN(Cc1ccc([N+](=O)[O-])cc1)S(=O)(=O)c1ccc([N+](=O)[O-])cc1)NO	8 nM	15 nM	7 nM	9 nM
O=C(CN(Cc1ccc([N+](=O)[O-])cc1)S(=O)(=O)c1cccs1)NO	10 nM	14 nM	12 nM	13 nM
Cc1cc(C)c(S(=O)(=O)N(CC(=O)NO)Cc2ccc([N+](=O)[O-])cc2)c(C)c1	39 nM	36 nM	29 nM	25 nM
O=C(CN(Cc1ccc([N+](=O)[O-])cc1)S(=O)(=O)c1ccc([N+](=O)[O-])c(Cl)c1)NO	7 nM	31 nM	6 nM	7 nM
O=C(CN(Cc1ccc([N+](=O)[O-])cc1)C(=O)NS(=O)(=O)c1ccc(Cl)cc1)NO	5 nM	46 nM	4 nM	3 nM
Cc1ccccc1S(=O)(=O)NC(=O)Nc1cccc(S(=O)(=O)N(CC(=O)NO)Cc2ccc([N+](=O)[O-])cc2)c1	3 nM	58 nM	2 nM	2.8 nM
O=C(O)CN(Cc1ccc([N+](=O)[O-])cc1)S(=O)(=O)c1cccc(NC(=O)NS(=O)(=O)c2ccc(F)cc2)c1	18 nM	> 100 nM	34 nM	15 nM
O=C(CN(Cc1ccc([N+](=O)[O-])cc1)S(=O)(=O)c1cc(Cl)ccc1Cl)NO	17 nM	9 nM	13 nM	10 nM
COc1ccc(S(=O)(=O)N(CC(=O)NO)Cc2ccc([N+](=O)[O-])cc2)cc1NC(=O)OC(C)(C)C	7 nM	25 nM	7 nM	5 nM
O=C(O)CN(Cc1ccc([N+](=O)[O-])cc1)S(=O)(=O)c1ccc(NC(=O)NS(=O)(=O)c2ccc(Cl)cc2)cc1	36 nM	95 nM	24 nM	21 nM
Cc1ccc(S(=O)(=O)NC(=O)Nc2ccc(S(=O)(=O)N(CC(=O)O)Cc3ccc([N+](=O)[O-])cc3)cc2)cc1	25 nM	94 nM	28 nM	24 nM
O=C(CN(Cc1ccc([N+](=O)[O-])cc1)S(=O)(=O)c1ccc(NC(=O)NS(=O)(=O)c2ccccc2)cc1)NO	0.9 nM	61 nM	0.7 nM	0.6 nM
O=C(CN(Cc1ccc([N+](=O)[O-])cc1)S(=O)(=O)c1ccc(F)cc1)NO	14 nM	19 nM	15 nM	15 nM
Cc1ccc(S(=O)(=O)NC(=O)N(CC(=O)NO)Cc2ccc([N+](=O)[O-])cc2)cc1	8 nM	54 nM	6 nM	6 nM
O=C(O)CN(Cc1ccc([N+](=O)[O-])cc1)S(=O)(=O)c1cccc(NC(=O)NS(=O)(=O)c2ccccc2)c1	22 nM	> 100 nM	27 nM	19 nM
O=C(O)CN(Cc1ccc([N+](=O)[O-])cc1)S(=O)(=O)c1ccc(NC(=O)NS(=O)(=O)c2ccccc2)cc1	21 nM	> 100 nM	23 nM	18 nM

Structure (SMILES)	Ki [1]	Ki (Interstitial collagenase)	Ki (Neutrophil collagenase)	Ki [2]
Cc1ccc(S(=O)(=O)NC(=O)Nc2cccc(S(=O)(=O)N(CC(=O)NO)Cc3ccc([N+](=O)[O-])cc3)c2)cc1	3.1 nM	53 nM	2.1 nM	2.5 nM
Cc1ccc(S(=O)(=O)N(CC(=O)NO)Cc2ccc([N+](=O)[O-])cc2)cc1	27 nM	30 nM	24 nM	20 nM
O=C(CN(Cc1ccc([N+](=O)[O-])cc1)S(=O)(=O)c1cccc(C(F)(F)F)c1)NO	0.8 nM	5 nM	0.7 nM	1.1 nM
Cc1ccc(S(=O)(=O)NC(=O)Nc2cccc(S(=O)(=O)N(CC(=O)O)Cc3ccc([N+](=O)[O-])cc3)c2)cc1	21 nM	> 100 nM	30 nM	21 nM
O=C(CN(Cc1ccc([N+](=O)[O-])cc1)S(=O)(=O)c1ccc(C(=O)O)cc1)NO	2.8 nM	34 nM	2.4 nM	2.5 nM
O=C(CN(Cc1ccc([N+](=O)[O-])cc1)S(=O)(=O)c1ccc(NC(=O)NS(=O)(=O)c2ccc(Cl)cc2)cc1)NO	1 nM	50 nM	1.1 nM	0.8 nM
O=C(CN(Cc1ccc([N+](=O)[O-])cc1)C(=O)Nc1cccc2ccccc12)NO	33 nM	> 100 nM	39 nM	35 nM
O=C(CN(Cc1ccc([N+](=O)[O-])cc1)C(=S)NC(=O)c1ccccc1)NO	1.4 nM	37 nM	1.5 nM	2 nM
O=C(CN(Cc1ccc([N+](=O)[O-])cc1)C(=O)NS(=O)(=O)c1ccccc1)NO	3 nM	39 nM	4 nM	5 nM
CC(=O)Nc1ccc(S(=O)(=O)N(CC(=O)NO)Cc2ccc([N+](=O)[O-])cc2)cc1	12 nM	14 nM	9 nM	8 nM
O=C(CN(Cc1ccc([N+](=O)[O-])cc1)S(=O)(=O)C(F)(F)C(F)(F)C(F)(F)C(F)(F)C(F)(F)C(F)(F)C(F)(F)C(F)(F)F)NO	1.3 nM	79 nM	1.3 nM	0.9 nM
O=C(CN(Cc1ccc([N+](=O)[O-])cc1)C(=O)Nc1ccc(Cl)c(Cl)c1)NO	7 nM	31 nM	5 nM	6 nM
O=C(CN(Cc1ccc([N+](=O)[O-])cc1)S(=O)(=O)c1ccc(I)cc1)NO	16 nM	29 nM	17 nM	19 nM
CN(C)S(=O)(=O)N(CC(=O)NO)Cc1ccc([N+](=O)[O-])cc1	43 nM	26 nM	35 nM	36 nM
Cc1ccccc1S(=O)(=O)NC(=O)Nc1ccc(S(=O)(=O)N(CC(=O)NO)Cc2ccc([N+](=O)[O-])cc2)cc1	0.7 nM	72 nM	1.5 nM	1.6 nM
O=C(CN(Cc1ccc([N+](=O)[O-])cc1)S(=O)(=O)c1cccc(NC(=O)NS(=O)(=O)c2ccc(Cl)cc2)c1)NO	1.6 nM	50 nM	1.3 nM	1.5 nM
O=C(CN(Cc1ccc([N+](=O)[O-])cc1)S(=O)(=O)c1ccccc1[N+](=O)[O-])NO	14 nM	59 nM	13 nM	15 nM
O=C(CN(Cc1ccc([N+](=O)[O-])cc1)S(=O)(=O)C(Cl)(Cl)Cl)NO	25 nM	24 nM	19 nM	17 nM
O=C(CN(Cc1ccc([N+](=O)[O-])cc1)S(=O)(=O)c1cccc(NC(=O)NS(=O)(=O)c2ccc(F)cc2)c1)NO	2.5 nM	49 nM	1.4 nM	1.8 nM
O=C(CN(Cc1ccc([N+](=O)[O-])cc1)S(=O)(=O)c1cccc(C(=O)O)c1)NO	2.5 nM	41 nM	3.3 nM	3 nM
O=C(CN(Cc1ccc([N+](=O)[O-])cc1)S(=O)(=O)c1cccc(NC(=O)NS(=O)(=O)c2ccccc2)c1)NO	1.3 nM	60 nM	1 nM	1.2 nM
O=C(CN(Cc1ccc([N+](=O)[O-])cc1)S(=O)(=O)c1ccc(Br)cc1)NO	21 nM	25 nM	21 nM	13 nM
